Columns and labels:
[1] = test system: common lambsquarters (Ch); assay: Test Example 5: crop plant selectivity by upland field soil treatment (wheat), herbicidal effects; format: in vivo; design: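 grade of growth control; 5 = at least 90%; 4 = 70 to 90%; 3 = 50 to 70%; 2 = 30 to 50%; 1 = 10 to 30%; 0 = under 10%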; details: 21st day after application
Outline: (§1)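 Wheat and weeds were sown in sand-filled pots and covered with soil, then treated by soil application. Plants grew in a greenhouse, and herbicidal effect and crop phytotoxicity were scored on a rating scale 21 days after application.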

China jute (Ab) = assay: as above; format: in vivo; design: scale not given here; details: 21st day after application
Outline: as §1

slender amaranth (Am) = assay: as above; format: in vivo; design: scale not given here; details: 21st day after application
Outline: as §1

pale smartweed (Po) = assay: as above; format: in vivo; design: scale not given here; details: 21st day after application
Outline: as §1

green foxtail (Se) [2] = assay: as above; format: in vivo; design: scale not given here; details: 21st day after application
Outline: as §1

cotton (Go) = assay: Test Example 4: crop plant selectivity by upland field soil treatment (cotton), phytotoxicity; format: in vivo; design: scale not given here; details: evaluated 21st day after application
Outline: (§2)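 Cotton and weeds (incl. China jute, pale smartweed, slender amaranth) sown in sand-filled pots and covered with soil, then soil-treated. Grown in greenhouse; herbicidal effect and cotton phytotoxicity scored on day 21 after application against a rating standard.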

green foxtail (Se) [3] = assay: Test Example 4: crop plant selectivity by upland field soil treatment (cotton), herbicidal effects; format: in vivo; design: scale not given here; details: evaluated 21st day after application
Outline: as §2

wheat (Tr) = assay: Test Example 9: crop plant selectivity by upland field foliage treatment (wheat), phytotoxicity; details: dose 1.6 g ai/10a, 14th day after treatment;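 also: grade of crop injury; 5 = at least 90%; 4 = 70 to 90%; 3 = 50 to 70%; 2 = 30 to 50%; 1 = 10 to 30%; 0 = under 10%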
Outline: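 Sand-filled pot, wheat + weeds co-sown; greenhouse 2 wk, then foliage treatment; greenhouse culture continued; visual scoring of weed control and crop injury at 14 d post-treatment per grading scale.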

soybean (Gl) = assay: Test Example 6: crop plant selectivity by upland field soil treatment (soybean), phytotoxicity; format: in vivo; design: scale not given here; details: 21st day after application
Outline: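 Seeds are sown in sand and covered with soil. The soil is treated with test compound. Pots are kept in a greenhouse. Weed control and soybean damage are rated visually 21 days after application.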

corn (Ze) = assay: Test Example 7: crop plant selectivity by upland field soil treatment (corn), phytotoxicity; format: in vivo; design: scale not given here; details: 21st day after application
Outline: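 Corn and weed seeds were sown in sand-filled pots and covered with soil. After application, plants were grown in a greenhouse, and herbicidal effect and crop phytotoxicity were scored against fixed rating standards on day 21.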

Structure (SMILES)	Herbicidal effects Ch ([1]; dose 6.3 g ai/10a)	Herbicidal effects Ab (China jute (Ab); dose 6.3 g ai/10a)	Herbicidal effects Am (slender amaranth (Am); dose 6.3 g ai/10a)	Herbicidal effects Po (pale smartweed (Po); dose 6.3 g ai/10a)	Herbicidal effects Se (green foxtail (Se) [2]; dose 6.3 g ai/10a)	Phytotoxicity Go (cotton (Go); dose 6.3 g ai/10 a)	Herbicidal effects Se (green foxtail (Se) [3]; dose 6.3 g ai/10 a)	Phytotoxicity Tr (wheat (Tr))	Phytotoxicity Gl (soybean (Gl); dose 6.3 g ai/10a)	Phytotoxicity Ze (corn (Ze); dose 6.3 g ai/10a)	Herbicidal effects Ch ([1]; dose 1.6 g ai/10a)	Herbicidal effects Ab (China jute (Ab); dose 1.6 g ai/10a)	Herbicidal effects Am (slender amaranth (Am); dose 1.6 g ai/10a)	Herbicidal effects Po (pale smartweed (Po); dose 1.6 g ai/10a)	Herbicidal effects Se (green foxtail (Se) [2]; dose 1.6 g ai/10a)	Phytotoxicity Go (cotton (Go); dose 1.6 g ai/10 a)	Herbicidal effects Se (green foxtail (Se) [3]; dose 1.6 g ai/10 a)	Phytotoxicity Gl (soybean (Gl); dose 1.6 g ai/10a)	Phytotoxicity Ze (corn (Ze); dose 1.6 g ai/10a)
CSCOc1cc(-c2ccc(C(F)(F)F)n(C)c2=O)c(F)cc1Cl [Compound 1-208]	5	5	5	4	5	1	5	2	2	1									
C#CCN1C(=O)COc2cc(Cl)c(-c3ccc(C(F)(F)F)n(C)c3=O)cc21 [Compound 2-25]	5	5	5	5	5	0	5	2	1		5	5	5	5	5	0	5	0	1
C=CCN1C(=O)COc2cc(Cl)c(-c3ccc(C(F)(F)F)n(C)c3=O)cc21 [Compound 2-26]	5	5	5	5	5	1	5	2	1	1									
Cc1cc2c(-c3ccc(C(F)(F)F)n(C)c3=O)c(F)cc(Cl)c2o1 [Compound 4-1]	5	5	5	5	5	1	5	2	2	1	5	5	5	5	5	0	5	1	0
CCc1cc2c(-c3ccc(C(F)(F)F)n(C)c3=O)c(F)cc(Cl)c2o1 [Compound 4-2]						2	5	2		1	5	5	5	5	5	1	5	1	1
CCCc1cc2c(-c3ccc(C(F)(F)F)n(C)c3=O)c(F)cc(Cl)c2o1 [Compound 4-3]	5	5	5	5	5	0	5	2	1	1									
CCc1cc2c(Cl)cc(F)c(-c3ccc(C(F)(F)F)n(C)c3=O)c2o1 [Compound 5-2]	5	5	5	5	5	1	5	2	1	0									
CCCC(=O)c1cc(-c2ccc(C(F)(F)F)n(C)c2=O)c(F)cc1Cl [Compound No. 1-194, 3-[4-chloro-2-fluoro-5-(1-oxobutyl)phenyl]-1-methyl-6-trifluoromethyl-2(1H)-pyridone]	5	5	5	5	5	1	5	1	1	0									
Cn1c(C(F)(F)F)ccc(-c2c(F)cc(Cl)c3oc(CO)cc23)c1=O [Compound No. 4-5, 3-(7-chloro-5-fluoro-2-hydroxymethylbenzofuran-4-yl)-1-methyl-6-trifluoromethyl-2-(1H)-pyridone]	5	5	5	5	5	2	5	2	2	0									
Cn1c(C(F)(F)F)ccc(-c2c(F)cc(Cl)c3occc23)c1=O [Compound No. 4-28, 3-(7-chloro-5-fluorobenzofuran-4-yl)-1-methyl-6-trifluoromethyl-2-(1H)-pyridone]	5	5	5	5	5	1	5	2								0	5	2	1

— US6472348B1, “Pyridone derivatives and herbicides” (Kumiai Chemical Industry Co., Ltd., priority 1996, dated 2002)
